{"source": "patent US4454156A", "about": "“4-Amino-hepta-5,6-dienoic acid” (Merrell-Toraude et Compagnie, priority 1982, dated 1984)", "key": {"[1]": {"tested_on": "GABA-T", "assay": "GABA-T activity in mouse brain after seven daily i.p. doses", "format": "in vivo, mice (male albino CD1)", "details": "24 h after last dose", "description": "(§1) Male albino CD1 mice each weighing approximately 34 g at commencement of the test are given an i.p. injection of the test compound in aqueous solution daily for seven consecutive days. Half of the animals are killed by decapitation 24 hours after the last dose fo the test compound. The other half of the animals are observed for up to 12 days for toxicity (as indicated by weight loss and deaths). Control animals receive an injecion of the vehicle only.\n(§2) The brains are removed from the dead mice and are divided into two portions by sagittal section. One half is used for the measurement of GABA-T activity while the other is used for measuring GABA content. The GABA-T activity is measured using known methods as described by M. Jung et al., J.Neurochem., 28, 717 (1977) and 29, 797 (1977). GABA content is measured by perchloric acid or trichloroacetic acid extracts using an amino acid analyzer equiped with a fluorescence detector."}, "[2]": {"tested_on": "GABA levels in the brain", "assay": "GABA content of mouse brain after seven daily i.p. doses", "format": "in vivo, mice (male albino CD1)", "details": "24 h after last dose", "description": "as §1, §2"}, "[3]": {"tested_on": "GABA-T", "assay": "GABA-T activity in mouse brain after a single i.p. or oral dose", "format": "in vivo, mice", "details": "for GABA-T Activity (calculated as percent inhibition): 6 h", "description": "as §1, §2\nA. The procedure of Example 3 is repeated using a single i.p. dose of the test compound and killing the mice 6 hours after the i.p. injection.\n(§3) B. The procedure of Part A is repeated using both oral and i.p. doses of (R,S)-allenyl GABA."}, "[4]": {"tested_on": "GABA levels in the brain", "assay": "GABA level in mouse brain after a single i.p. or oral dose", "format": "in vivo, mice", "details": "for GABA Level (calculated as percent of control): 6 h", "description": "[…] […] The other half of the animals are observed for up to 12 days for toxicity (as indicated by weight loss and deaths). Control animals receive an injecion of the vehicle only.\nThe brains are removed from the dead mice and are divided into two portions by sagittal section. One half is used for the measurement of GABA-T activity while the other is used for measuring GABA content. […] GABA content is measured by perchloric acid or trichloroacetic acid extracts using an amino acid analyzer equiped with a fluorescence detector.\nas §3"}, "[5]": {"assay": "Toxicity (lethality) after i.p. or oral administration to mice", "description": "A. The toxicity of (S)-allenyl GABA and (R,S)-allenyl GABA was determined after i.p. administration to male mice. The mice were observed up to eight days after injection.\nB. The toxicity of (S)-allenyl GABA (\"S\") and (R,S)-allenyl GABA (\"R,S\") was determined as in Part A after both oral and i.p. administration."}, "[6]": {"tested_on": "seizures and death induced by mercaptopropionic acid", "assay": "Protection of mice against seizures and death induced by mercaptopropionic acid", "format": "in vivo", "details": "for Number of Animals having seizures / Number of Dead animals: 6 h before mercaptopropionic acid 53 mg/kg i.p.", "source_text": "Mice (3.5) were given a single i.p. injection of the test compound. […] The results of the testing are set forth below"}, "[7]": {"details": "100 mg/kg i.p. daily for 7 days"}, "[8]": {"details": "i.p., 0.77 mM/kg (135.9 mg/kg), single dose, Table 3"}, "[9]": {"details": "i.p., 1.94 mM/kg (342.4 mg/kg), single dose, Table 3"}, "[10]": {"details": "i.p., 3.87 mM/kg (683.1 mg/kg), single dose, Table 3"}, "[11]": {"details": "oral, 0.77 mM/kg (135.9 mg/kg), single dose, Table 3"}, "[12]": {"details": "oral, 1.94 mM/kg (342.4 mg/kg), single dose, Table 3"}, "[13]": {"details": "oral, 3.87 mM/kg (683.1 mg/kg), single dose, Table 3"}, "[14]": {"details": "single i.p. dose 1.55 mM/kg (273.5 mg/kg), Table 2"}, "[15]": {"details": "single i.p. dose 3.10 mM/kg (547.2 mg/kg), Table 2"}, "[16]": {"details": "single i.p. dose 6.2 mM/kg (1094.3 mg/kg), Table 2"}, "[17]": {"details": "mercaptopropionic acid model, mice"}}, "note": "“And” between values parts separate entries of the source, which are not always exact repeats. Identical values can stand only once."}
{"compound": "C=C=CC(N)CCC(=O)O", "note": "(racemic) [(R,S)-allenyl GABA, (R,S)-4-amino-hepta-5,6-dienoic acid]", "values": [{"measurement": "GABA-T Activity (calculated as percent inhibition)", "setting": "[1]; 50 mg/kg i.p. daily for 7 days", "value": 55, "unit": "percent inhibition"}, {"measurement": "GABA-T Activity (calculated as percent inhibition)", "setting": "[1]; [7]", "value": 74, "unit": "percent inhibition"}, {"measurement": "GABA Level (calculated as percent of control)", "setting": "[2]; 50 mg/kg i.p. daily for 7 days", "value": "130% of control"}, {"measurement": "GABA Level (calculated as percent of control)", "setting": "[2]; [7]", "value": "180% of control"}, {"measurement": "GABA-T Activity (calculated as percent inhibition)", "setting": "[3]; [8]", "value": 64, "unit": "percent inhibition"}, {"measurement": "GABA-T Activity (calculated as percent inhibition)", "setting": "[3]; [9]", "value": 84, "unit": "percent inhibition"}, {"measurement": "GABA-T Activity (calculated as percent inhibition)", "setting": "[3]; [10]", "value": 88, "unit": "percent inhibition"}, {"measurement": "irreversible inhibition of GABA-T in vivo", "setting": "[3]; in vivo", "value": "produce irreversible inhibition of GABA-T"}, {"measurement": "GABA-T Activity (calculated as percent inhibition)", "setting": "[3]; [11]", "value": 69, "unit": "percent inhibition"}, {"measurement": "GABA-T Activity (calculated as percent inhibition)", "setting": "[3]; [12]", "value": 81, "unit": "percent inhibition"}, {"measurement": "GABA-T Activity (calculated as percent inhibition)", "setting": "[3]; [13]", "value": 86, "unit": "percent inhibition"}, {"measurement": "GABA-T Activity (calculated as percent inhibition)", "setting": "[3]; [14]", "value": 76, "unit": "percent inhibition"}, {"measurement": "GABA-T Activity (calculated as percent inhibition)", "setting": "[3]; [15]", "value": 89, "unit": "percent inhibition"}, {"measurement": "GABA-T Activity (calculated as percent inhibition)", "setting": "[3]; [16]", "value": 96, "unit": "percent inhibition"}, {"measurement": "elevation of GABA levels in the CNS", "setting": "[4]; administered orally or parenterally", "value": "can elevate GABA levels significantly in the CNS"}, {"measurement": "GABA Level (calculated as percent of control)", "setting": "[4]; [8]", "value": "310% of control"}, {"measurement": "GABA Level (calculated as percent of control)", "setting": "[4]; [9]", "value": "490% of control"}, {"measurement": "GABA Level (calculated as percent of control)", "setting": "[4]; [10]", "value": "600% of control"}, {"measurement": "effectiveness by oral versus i.p. route", "setting": "[4]; oral vs i.p., Table 3", "value": "equally effective when given by the oral and i.p. routes of administration"}, {"measurement": "GABA Level (calculated as percent of control)", "setting": "[4]; [11]", "value": "330% of control"}, {"measurement": "GABA Level (calculated as percent of control)", "setting": "[4]; [12]", "value": "434% of control"}, {"measurement": "GABA Level (calculated as percent of control)", "setting": "[4]; [13]", "value": "530% of control"}, {"measurement": "GABA Level (calculated as percent of control)", "setting": "[4]; [14]", "value": "470% of control"}, {"measurement": "GABA Level (calculated as percent of control)", "setting": "[4]; [15]", "value": "530% of control"}, {"measurement": "GABA Level (calculated as percent of control)", "setting": "[4]; [16]", "value": "770% of control"}, {"measurement": "selectivity ratio", "setting": "[5]; mouse, in vivo, ip", "value": "4 to 5"}, {"measurement": "No. of dead animals", "setting": "[5]; mouse, in vivo, ip, 500 mg/kg", "value": "0/5"}, {"measurement": "No. of dead animals Day 4", "setting": "[5]; mouse, in vivo, ip, 500 mg/kg", "value": "0/5"}, {"measurement": "No. of dead animals", "setting": "[5]; mouse, in vivo, ip, 750 mg/kg", "value": "3/5"}, {"measurement": "No. of dead animals Day 4", "setting": "[5]; mouse, in vivo, ip, 750 mg/kg", "value": "3/5"}, {"measurement": "No. of dead animals", "setting": "[5]; mouse, in vivo, ip, 1000 mg/kg", "value": "2/5 and 4/5 and 5/5"}, {"measurement": "No. of dead animals Day 4", "setting": "[5]; mouse, in vivo, ip, 1000 mg/kg", "value": "5/5"}, {"measurement": "No. of dead animals", "setting": "[5]; mouse, in vivo, ip, 1500 mg/kg", "value": "5/5"}, {"measurement": "No. of dead animals Day 4", "setting": "[5]; mouse, in vivo, ip, 1500 mg/kg", "value": "5/5"}, {"measurement": "No. of dead animals Day 4", "setting": "[5]; mouse, in vivo, po, 500 mg/kg", "value": "0/5"}, {"measurement": "No. of dead animals Day 4", "setting": "[5]; mouse, in vivo, po, 750 mg/kg", "value": "0/5"}, {"measurement": "No. of dead animals Day 4", "setting": "[5]; mouse, in vivo, po, 1000 mg/kg", "value": "0/5"}, {"measurement": "No. of dead animals Day 4", "setting": "[5]; mouse, in vivo, po, 1500 mg/kg", "value": "0/5"}, {"measurement": "toxicity by oral administration", "setting": "[5]; oral", "value": "did not show toxicity by the oral route up to a dose of 1500 mg/kg"}, {"measurement": "Number of Animals having seizures", "setting": "[6]; 0.39 mMole/kg i.p.", "value": "5/5"}, {"measurement": "Number of Dead animals", "setting": "[6]; 0.39 mMole/kg i.p.", "value": "3/5"}, {"measurement": "Number of Animals having seizures", "setting": "[6]; 0.77 mMole/kg i.p.", "value": "5/5"}, {"measurement": "Number of Dead animals", "setting": "[6]; 0.77 mMole/kg i.p.", "value": "2/5"}, {"measurement": "Number of Animals having seizures", "setting": "[6]; 1.9 mMole/kg i.p.", "value": "3/5"}, {"measurement": "Number of Dead animals", "setting": "[6]; 1.9 mMole/kg i.p.", "value": "0/5"}, {"measurement": "Number of Animals having seizures", "setting": "[6]; 3.9 mMole/kg i.p.", "value": "3/5"}, {"measurement": "Number of Dead animals", "setting": "[6]; 3.9 mMole/kg i.p.", "value": "0/5"}, {"measurement": "effect on number of dead animals", "setting": "[6]; [17]", "value": "significantly reduces the number of dead animals"}, {"measurement": "protection against seizures", "setting": "[6]; [17]", "value": "does not protect totally against seizures"}]}
